Assay [1] has as its system Antibody to Immunogen II. Description: Competitive ELISA (Example 36), antibody RS1833B12, tracer ESC4555/LK959, standard JWH-018. The class given is binding, sheep. Put shortly:
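Sheep antiserum IgG coated on plates overnight at 4°C; standard or cross-reactant competes with hapten-HRP conjugate in Tris buffer pH 7.2 for 1 h at 25°C.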
Background: ELISA stands for enzyme-linked immunosorbent assay.

In assay [2] the test system is antiserum raised to Immunogen II (Hapten B-BTG). The assay is described as follows: Competitive ELISA microtiter plate assay (Example 19), antiserum raised to Immunogen II, Hapten A-HRP conjugate as detection reagent. The class given is binding, sheep. The protocol:
Aqueous solutions of the immunogens prepared in examples 5 and 13 were formulated with Freund's Complete Adjuvant (FCA) to form emulsions consisting of 2mg/ml Immunogen I and 2mg/ml of Immunogen II in 50%(v/v) FCA. Three sheep were immunised with each emulsion (1° immunisations), 0.25ml being intramuscularly injected at four sites in the rump of each animal. Subsequent immunisations (boosts 2-8) contained 1mg/ml Immunogen I and 1mg/ml Immunogen II. All boosts were emulsified in 50%(v/v) Freund's Incomplete Adjuvant (FIA) and administered to the appropriate sheep in the same manner as the 1° immunisations, at monthly intervals. Blood sampling took place 7-14 days after each boost. Each sample was processed to produce antiserum, which was further purified by caprylic acid and ammonium sulphate precipitation to yield an immunoglobulin (Ig) fraction. The Ig fraction was evaluated by competitive ELISA microtiter plate assay, as described in example 19 below.
Example 19: Development of competitive ELISA for JWH synthetic cannabinoids and metabolites. • (a) The wells of an enhanced binding 96 well polystyrene microtiter plate were coated with the Ig fraction of the antiserum raised to Immunogen I (Hapten A-BTG - example 5) and diluted in 10mM Tris, pH8.5 (125µl/well). The appropriate antibody coating concentration was determined using standard ELISA checkerboard techniques. The plate was incubated for 2 hours at 37°C, washed 4 times over a 10-minute period with Tris buffered saline containing Tween 20 (TBST) and tapped dry. Standard solutions of JWH synthetic cannabinoids, metabolites and selected molecules were prepared in TBST and 50µl of each was added to the appropriate wells. 75µl of conjugate (Hapten A-HRP) diluted in Tris buffer containing EDTA, D-mannitol, sucrose, thimerosal and BSA, was added to each of the wells. The appropriate dilution of conjugate was also determined using standard ELISA checkerboard techniques. The plate was incubated at 25°C for 1 hour. The excess unbound conjugate was removed by washing 6 times over a 10-minute period with TBST and tapped dry. 125µl of tetramethylbenzedine (TMB) substrate solution was added to each well of the plate that was then incubated for 15-20 minutes in the dark at room temperature. The reaction was terminated by addition of 125µl of 0.2M sulphuric acid to each well. The absorbance was then measured at 450nm using a microtiter plate reader. Employing each series of standards, calibration curves were generated and these were used to determine the specificity of the immunoassay for the JWH synthetic cannabinoids, metabolites and selected molecules. The results of this study are presented in Tables 1 to 3, cross-reactivity being calculated according to the following formula: %CR = […] /IC50,CR X 100 [formula] Where %CR is the percentage cross-reactivity, IC50, YWH-018 is the concentration of JWH-018 that causes 50% displacement of signal and IC50, CR is the concentration of JWH synthetic cannabinoid/metabolite/selected molecule that causes 50% displacement of signal.
Table 1: Data generated from a competitive microtiter plate assay for JWH synthetic cannabinoids and metabolites, employing antiserum raised to Immunogen II (Hapten B-BTG) and conjugate (Hapten A-HRP) as detection reagent. (b) In a similar manner to that described in Example 19(a), the wells of a 96 well microtiter plate were coated with the Ig fraction of the antiserum raised to Immunogen II ([…]). Conjugate (Hapten A-HRP) was employed as a detection reagent.

The mark [3] stands for this setting: Cross-reactants at 100 ng/ml, Antibody to Immunogen II.
[4] abbreviates: Table 1, 40 ng/ml highest concentration tested.
The mark [5] stands for this setting: Table 1, CR based on 100% for JWH-018.

For the compound `O=C(c1cccc2ccccc12)c1c[nH]c2ccccc12` [3-(1-naphthoyl)-1H-Indole, 3-(1-naphthoyl)-1H-indole], the “%B/B0” value in assay [1] (setting [3]) came out at 99.18%. In addition, the IC50 ng/ml in assay [2] (setting [4]) is >> 40 ng/ml. Further, in assay [2] (setting [5]), the “% Cross-reactivity” value is given as << 5.28%.
One may read the IC50 as the concentration that gives 50% inhibition. As for `O=C(O)CCCCn1cc(C(=O)c2cccc3ccccc23)c2ccccc21` [JWH-018 N-pentanoic acid metabolite], the “%B/B0” value in assay [1] (setting [3]) amounted to 85.61%. For the same compound, the IC50 in assay [2] (setting [4]) was determined as 5.48 ng/mL. In addition, in assay [2] (setting [5]), the “% Cross-reactivity” value came out at 38.50%.
For the compound `O=C(c1cccc2ccccc12)c1cn(CCCCCO)c2ccccc12` [JWH-018 N-(5-hydroxypentyl) metabolite], the “%B/B0” value in assay [1] (setting [3]) was 53.38%. Further, in assay [2] (setting [4]), the IC50 is 1.15 ng/mL. In addition, the “% Cross-reactivity” value in assay [2] (setting [5]) was 183.48%.
The corresponding values for `O=C(c1cccc2ccccc12)c1cn(CCN2CCOCC2)c2ccccc12` [WIN 55,225 (other name JWH-200), JWH-200] are 54.02%, 1.66 ng/mL and 127.11%.
With `CCCCCn1cc(C(=O)c2ccc(Cl)c3ccccc23)c2ccccc21` [JWH-398], in assay [1] (setting [3]), the “%B/B0” value came out at 30.31%. The IC50 in assay [2] (setting [4]) was determined as 17.55 ng/mL. In assay [2] (setting [5]), the “% Cross-reactivity” value was found to be 12.02%.
The corresponding values for `CCCCCn1cc(C(=O)c2cccc3ccccc23)c2cc(O)ccc21` [JWH-018 5-hydroxyindole metabolite] are 12.14%, 1.62 ng/mL and 130.25%.
As to `CCCCCn1cc(C(=O)c2cccc3ccccc23)c2ccc(O)cc21` [JWH-018 6-hydroxyindole metabolite], in assay [1] (setting [3]), the “%B/B0” value is 24.39%. Also, the concentration for half-maximal inhibition (IC50) in assay [2] (setting [4]) amounted to 0.98 ng/mL. For the same compound, the “% Cross-reactivity” value in assay [2] (setting [5]) worked out at 215.31%.
The corresponding values for `CCCCCn1cc(C(=O)c2cccc3ccccc23)c2c(O)cccc21` [JWH-018 4-hydroxyindole metabolite] are 29.49%, 9.16 ng/mL and 23.03%.
The corresponding values for `CCCCn1cc(C(=O)c2cccc3ccccc23)c2ccccc21` [JWH-073] are 15.24%, 1.56 ng/mL and 135.26%.
With `CCCCCn1cc(C(=O)c2cccc3ccccc23)c2ccccc21` [JWH-018], the “%B/B0” value in assay [1] (setting [3]) came out at 9.29%; in assay [1] (JWH-018 standard 0.625 ng/ml), 68%; in assay [1] (JWH-018 standard 1.25 ng/ml), 53%; in assay [1] (JWH-018 standard 2.5 ng/ml) it was 34%; in assay [1] (JWH-018 standard 5 ng/ml) it was 25%; in assay [1] (JWH-018 standard 10 ng/ml), 17%. In addition, the figures for the “%B/B0” value in assay [1] (JWH-018 standard 20 ng/ml) and in assay [1] (JWH-018 standard 40 ng/ml) were 13% and 10%, respectively. The 50% inhibitory concentration (IC50) in assay [1] (Table 3a standard curve, standard concentration which produces 50% B/B0) was 1.333 ng/mL; in assay [2] (setting [4]), 2.11 ng/mL; in assay [2] (first Table 4, Immunogen II) it was 1.97 ng/mL. Moreover, the “% Cross-reactivity” value in assay [2] (setting [5]) amounted to 100.00%; in assay [2] (first Table 4, Immunogen II, JWH-018 = 100), 100.00%.

The record behind these values is patent EP2698385A1, “Detection of synthetic cannabinoids” (priority 2012, dated 2014).
